Read-outs that look alike come from different tables or passages of the source.
Key:
[1] = tested on: A2B receptor; set-up: method as in Brackett and Daly, 1994; conditions: ref Brackett and Daly, 1994; cited from earlier work
[2] = biological target: T1, human A2B receptors (Homo sapiens, UniProt P29275); conditions: ref Jacobson et al., 1999, cited from earlier work
T1 construct: expressed in transfected cells; host or cells: HEK-293
T1 sequence (P29275 1-332): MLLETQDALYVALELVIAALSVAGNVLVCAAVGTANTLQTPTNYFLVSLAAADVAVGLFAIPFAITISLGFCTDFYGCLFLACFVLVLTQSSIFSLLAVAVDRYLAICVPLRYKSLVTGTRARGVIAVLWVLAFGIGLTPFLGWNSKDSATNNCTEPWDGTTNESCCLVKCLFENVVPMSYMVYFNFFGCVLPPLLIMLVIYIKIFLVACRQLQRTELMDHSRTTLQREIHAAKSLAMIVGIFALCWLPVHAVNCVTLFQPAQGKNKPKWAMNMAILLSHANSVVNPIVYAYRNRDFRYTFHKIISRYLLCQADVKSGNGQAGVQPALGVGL

[3] = biological target: T2, rat A2A receptors (Rattus norvegicus, UniProt P30543); test: Displacement of [3H]CGS 21680 binding to A2A receptors in rat striatal membranes; conditions: read-out: Ki rA2A
T2 construct: to A2A receptors from rat striatal membranes; from tissue; host or cells: rat striatal membranes
T2 sequence (P30543 whole entry): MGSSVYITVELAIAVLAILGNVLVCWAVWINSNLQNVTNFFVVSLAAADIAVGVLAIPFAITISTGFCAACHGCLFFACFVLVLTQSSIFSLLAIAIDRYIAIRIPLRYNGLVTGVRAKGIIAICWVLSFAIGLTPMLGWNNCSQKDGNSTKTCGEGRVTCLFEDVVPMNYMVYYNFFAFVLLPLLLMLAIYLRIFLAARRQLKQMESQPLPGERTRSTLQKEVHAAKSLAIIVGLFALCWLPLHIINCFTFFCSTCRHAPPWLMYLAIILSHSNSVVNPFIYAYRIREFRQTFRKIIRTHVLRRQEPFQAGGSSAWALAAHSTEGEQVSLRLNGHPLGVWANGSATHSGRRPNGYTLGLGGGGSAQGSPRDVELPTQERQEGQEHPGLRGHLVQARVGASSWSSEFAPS
Protocol: (§1) All nonradioactive compounds were initially dissolved in DMSO and diluted with buffer to the final concentration, where the amount of DMSO never exceeded 2%. Incubations were terminated by rapid filtration over Whatman GF/B filters using a Brandell cell harvester. The tubes were rinsed three times with 3 mL buffer each.
(§2) At least six different concentrations of competitor, spanning 3 orders of magnitude adjusted appropriately for the IC50 value of each compound, were used. IC50 values, calculated with the nonlinear regression method implemented in Graph-Pad Prism (San Diego, CA) were converted to apparent Ki values as described by [Linden [1982]]. Hill coefficients of the tested compounds were in the range of 0.8–1.1.
(§3) At A2B receptors, two radioligand binding assays (Table 1) were used. Ki values of xanthine derivatives were determined in displacement of binding of the non-selective radioligands […], 8 (4-(2-[7-amino-2-{furyl}{1,2,4}triazolo{2,3-a}{1,3,5}tr nzyl)-8-phenyloxyacetate-1-propyl-xanthine), at human A2B receptors expressed in HEK-293 cell membranes [[Linden and Jacobson, 1998]]. In order to evaluate selectivity, selected derivatives were subjected to standard binding assays at A1, A2A, and A3 receptors. The initial screening utilized rat brain A1/A2A receptors (with radioligands [^3H]R-PIA and [^3H]CGS-21680), and selected compounds were examined at the recombinant human subtypes (Table 1), using [^3H]CPX ([^3H]8-cyclopentyl-1,3-dipropylxanthine) and ^125I-ZM 241385, ^125I-4-(2-[7-amino-2-[2-furyl][1,2,4]triazolo[2,3-a][1,3,5]triazin-5-yl-amino]ethyl)phenol) [[Palmer et al., 1996]].

[4] = biological target: T3, rat A1 receptors (Rattus norvegicus, UniProt P25099); test: Displacement of [3H]R-PIA binding to A1 receptors in rat brain membranes; conditions: read-out: Ki rA1
T3 construct: to A1 receptors from rat cerebral cortical membranes; from tissue; host or cells: rat cerebral cortical membranes
T3 sequence (P25099 1-326): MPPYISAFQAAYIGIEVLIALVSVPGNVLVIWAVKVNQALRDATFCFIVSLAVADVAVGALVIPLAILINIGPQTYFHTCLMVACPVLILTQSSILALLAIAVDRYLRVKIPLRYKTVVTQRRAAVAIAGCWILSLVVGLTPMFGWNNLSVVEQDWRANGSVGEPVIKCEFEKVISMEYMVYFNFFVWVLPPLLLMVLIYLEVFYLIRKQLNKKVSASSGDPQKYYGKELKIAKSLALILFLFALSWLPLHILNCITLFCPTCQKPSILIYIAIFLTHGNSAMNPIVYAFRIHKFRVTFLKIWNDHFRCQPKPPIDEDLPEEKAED
Protocol: as §1, §2, §3

[5] = biological target: T4, human A3 receptors (Homo sapiens, UniProt P0DMS8); test: Displacement of [125I]AB-MECA binding at human A3 receptors expressed in HEK cells; conditions: read-out: Ki hA3
T4 construct: expressed in transfected cells; host or cells: HEK-293
T4 sequence (P0DMS8 1-318): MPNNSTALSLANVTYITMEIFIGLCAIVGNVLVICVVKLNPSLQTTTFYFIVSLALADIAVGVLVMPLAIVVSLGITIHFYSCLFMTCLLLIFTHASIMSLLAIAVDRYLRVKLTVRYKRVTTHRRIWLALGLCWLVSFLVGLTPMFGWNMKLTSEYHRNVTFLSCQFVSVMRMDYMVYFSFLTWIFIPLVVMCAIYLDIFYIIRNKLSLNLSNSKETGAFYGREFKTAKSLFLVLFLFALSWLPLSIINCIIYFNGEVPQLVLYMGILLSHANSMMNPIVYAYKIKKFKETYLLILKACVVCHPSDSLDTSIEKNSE
Protocol: as §3

[6] = biological target: T5, human A2A receptors (Homo sapiens, UniProt P29274); test: Binding at recombinant human A2A receptors expressed in HEK-293 cells vs [125I]ZM241385; conditions: recombinant human A2A in HEK-293 cells, read-out: Ki A2A (h) (converted)
T5 construct: expressed in transfected cells; host or cells: HEK-293
T5 sequence (P29274 whole entry): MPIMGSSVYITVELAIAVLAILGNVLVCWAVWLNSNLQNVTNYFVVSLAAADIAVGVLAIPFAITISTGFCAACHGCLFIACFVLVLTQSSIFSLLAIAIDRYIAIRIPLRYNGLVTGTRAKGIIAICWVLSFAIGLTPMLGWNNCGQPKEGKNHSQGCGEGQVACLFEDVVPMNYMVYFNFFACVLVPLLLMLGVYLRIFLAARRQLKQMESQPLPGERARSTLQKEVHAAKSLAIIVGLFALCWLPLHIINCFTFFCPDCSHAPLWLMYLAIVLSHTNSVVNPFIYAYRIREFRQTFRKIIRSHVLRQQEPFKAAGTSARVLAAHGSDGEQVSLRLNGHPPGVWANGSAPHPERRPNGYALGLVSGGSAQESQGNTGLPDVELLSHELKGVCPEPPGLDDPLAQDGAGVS
Protocol: as §1, §2, §3

[7] = biological target: T6, human A1 receptors (Homo sapiens, UniProt P30542); test: Binding at recombinant human A1 receptors expressed in HEK-293 cells vs [3H]CPX; conditions: recombinant human A1 in HEK-293 cells
T6 construct: expressed in transfected cells; host or cells: HEK-293
T6 sequence (P30542 1-326): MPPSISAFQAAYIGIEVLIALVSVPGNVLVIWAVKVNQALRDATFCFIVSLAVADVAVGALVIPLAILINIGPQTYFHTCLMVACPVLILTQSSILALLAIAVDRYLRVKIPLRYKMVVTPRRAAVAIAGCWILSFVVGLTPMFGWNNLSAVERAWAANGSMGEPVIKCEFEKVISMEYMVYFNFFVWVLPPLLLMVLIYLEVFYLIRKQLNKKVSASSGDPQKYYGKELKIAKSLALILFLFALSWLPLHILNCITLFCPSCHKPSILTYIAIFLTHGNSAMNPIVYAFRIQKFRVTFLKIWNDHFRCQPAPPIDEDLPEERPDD
Protocol: as §1, §2, §3

[8] = biological target: T1, human A2B receptors; test: Binding at human A2B receptors expressed in HEK-293 cells vs [3H]ZM241385; conditions: for rA1/hA2B: ratio of Ki rat A1 to Ki human A2B
Protocol: The plasmid was amplified in competent JM109 cells and plasmid DNA isolated using Wizard Megaprep columns (Promega Corp., Madison, WI).
Colonies were selected by growth of cells in 0.6 mg/mL G418. Transfected cells were maintained in DMEM supplemented with Hams F12 nutrient mixture (1/1), 10% newborn calf serum, 2 mM glutamine, and containing 50 IU/mL penicillin, 50 μg/mL streptomycin, and 0.2 mg/mL Geneticin (G418, Boehringer Mannheim, Indianapolis, IN).
Confluent monolayers of HEK-A2B cells were washed with PBS followed by ice-cold Buffer A (10 mM HEPES, 10 mM EDTA, pH 7.4) with protease inhibitors ([…] benzamidine, […], and […] of each aprotinin, pepstatin, and leupeptin). The cells were homogenized in a Polytron (Brinkmann) for 20 sec, centrifuged at 30,000g, and the pellets washed twice with buffer HE (10 mM HEPES, 1 mM EDTA, pH 7.4 with protease inhibitors). The final pellet was resuspended in buffer HE, supplemented with 10% sucrose and frozen in aliquots at −80°C. For binding assays, membranes were thawed and diluted 5–10-fold with HE to a final protein concentration of approximately 1 mg/mL. […] After incubating for 20 min at room temperature, 50 mL of 10 mg/mL Na-metabisulfite in water was added the quench the reaction. The reaction products were applied to a C18 HPLC column using 4 mM phosphate, pH 6.0/methanol. […] The incubation time was 3 h at 21°C. […] Membranes were filtered on Whatman GF/C filters using a Brandell cell harvester (Gaithersburg, MD) and washed three times over 15–20 sec with ice-cold buffer (10 mM Tris, 1 mM MgCl2, pH 7.4). […] Data from replicate experiments are tabulated as means ± SEM.
At A2B receptors, two radioligand binding assays (Table 1) were used. […] In order to evaluate selectivity, selected derivatives were subjected to standard binding assays at A1, A2A, and A3 receptors.

[9] = HEK-293 cells, vs [3H]ZM241385, read-out: Ki hA2B
[10] = rounded values given in text, read-out: Ki at human A2B receptors

Structure (SMILES) | selectivity as antagonist at the A2B receptor vs. other subtypes [1] | enhancement of affinity at A2B receptors ([2]; relative to theophylline, 2) | selectivity for human A2B receptors vs. A1, A2A, and A3 adenosine receptors [2] | Ki [3] | Ki [4] | Ki [5] | Ki [6] | Ki [7] | Ki [8, 9] | rA1/hA2B [8] | Ki [8, 10]
O=c1nc2[nH]c3ccccc3nc-2c(=O)[nH]1 [Alloxazine] | approximately one order of magnitude |  |  |  |  |  |  |  |  |  | 
Cn1c(=O)c2[nH]c(-c3ccccc3)nc2n(C)c1=O [Compound 3] |  | 22 fold |  |  |  |  |  |  |  |  | 
CCCn1c(=O)c2[nH]c(-c3ccc(OCC(=O)ON4C(=O)CCC4=O)cc3)nc2n(CCC)c1=O [Compound 4d] |  |  | approximately 20 fold |  |  |  |  |  |  |  | 
CCCn1c(=O)c2[nH]c(-c3ccc(OCC(=O)NN4C(=O)CCC4=O)cc3)nc2n(CCC)c1=O [Compound 10, 8-[4-[(Carboxymethyl)oxy]phenyl]-1,3-di-(n-propyl)xanthine N,N-Succinylhydrazide] |  |  |  | 805 ± 44 nM | 55.9 ± 25.1 nM | 766 ± 176 nM | 27.2 nM | 75.2 nM | 18.6 ± 6.1 nM | 3.0 | 
CCCn1c(=O)c2[nH]c(-c3ccc(OCC(=O)NN4C(=O)C5CC=CCC5C4=O)cc3)nc2n(CCC)c1=O (stereo not drawn) [Compound 18b, 8-[4-[(Carboxymethyl)oxy]phenyl]-1,3-di-(n-propyl)xanthine N,N-(cis-1,2,3,6-Tetrahydrophthaloyl)-hydrazide] |  |  |  | 689 ± 477 nM | 36.4 ± 6.2 nM | 370 ± 190 nM | 301 nM | 129 nM | 10 ± 3 nM | 3.6 | 
CCCn1c(=O)c2[nH]c(-c3ccc(OCC(=O)NN4C(=O)CC[C@H](NC(=O)C(F)(F)F)C4=O)cc3)nc2n(CCC)c1=O [Compound 24b] |  |  |  | 440 ± 106 nM | 53.5 ± 6.5 nM | 726 ± 245 nM | 178 nM | 149 nM | 13 ± 3.5 nM | 4.1 | 
CCCn1c(=O)c2[nH]c(-c3ccc(OCC(=O)NNC(=O)[C@H](CCSC)NC(=O)OC(C)(C)C)cc3)nc2n(CCC)c1=O [Compound 26, 8-[4-[(Carboxymethyl)oxy]phenyl]-1,3-di-(n-propyl)xanthine N-(N-tert-Butoxycarbonyl-L-methionyl)-hydrazide] |  |  |  | 524 ± 285 nM | 113 ± 27 nM | 690 ± 570 nM |  |  | 39.7 ± 13.6 nM | 2.8 | 40 nM
CCCn1c(=O)c2[nH]c(-c3ccc(OCC(=O)NNC(=O)CNC(=O)CNC(=O)OCc4ccccc4)cc3)nc2n(CCC)c1=O [Compound 27, 8-[4-[(Carboxymethyl)oxy]phenyl]-1,3-di-(n-propyl)xanthine N-(N-Benzyloxycarbonyl-glycylglycinyl)hydrazide] |  |  |  | 609 ± 95 nM | 36 ± 6.6 nM | 323 ± 47 nM | 830 nM | 200 nM | 10.8 ± 5 nM | 3.3 | 11 nM
